# Test results from PubChem BioAssay AID328 (DTP/NCI, 2004).
# Values joined by “and” are separate entries in the source; they are usually repeats but may differ in a detail not shown here. Identical values can stand only once. Toxic doses and inconclusive results are not listed.
# Test system: BDF1 mice, P388 leukemia ip, median survival T/C
# Experiment: NCI In Vivo Anticancer Drug Screen. Data for tumor model P388 Leukemia (intraperitoneal) in B6D2F1 (BDF1) mice
# Settings: endpoint: median survival time, higher = longer survival
# Outline: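 Transplantable tumour in mice; compound vs vehicle dosing; survival scored; ratio of treated to control reported.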
# [1] = dose: 25.0 mg/kg/injection, schedule: Q01DX009 (ip), vehicle: saline
# [2] = dose: 50.0 mg/kg/injection, schedule: Q01DX009 (ip), vehicle: saline
# [3] = dose: 100.0 mg/kg/injection, schedule: Q01DX009 (ip), vehicle: saline
# [4] = dose: 200.0 mg/kg/injection, schedule: Q01DX009 (ip), vehicle: saline
# [5] = dose: 50.0 mg/kg/injection, schedule: Q01DX009 (ip), vehicle: saline with Tween-80
# [6] = dose: 100.0 mg/kg/injection, schedule: Q01DX009 (ip), vehicle: saline with Tween-80
smiles,measurement,setting,value
c1ccc2c(c1)C1=NCCN1c1ccccc1-2,T/C,"dose: 5.3 mg/kg/injection, schedule: Q01DX009 (ip), vehicle: Klucel (hydroxypropylcellulose) (HPC)",86 % of control
same,T/C,"dose: 8.0 mg/kg/injection, schedule: Q01DX009 (ip), vehicle: Klucel (hydroxypropylcellulose) (HPC)",86 % of control
same,T/C,"dose: 10.0 mg/kg/injection, schedule: Q01DX009 (ip), vehicle: Klucel (hydroxypropylcellulose) (HPC)",115 % of control
same,T/C,"dose: 12.0 mg/kg/injection, schedule: Q01DX009 (ip), vehicle: Klucel (hydroxypropylcellulose) (HPC)",95 % of control
same,T/C,"dose: 17.7 mg/kg/injection, schedule: Q01DX009 (ip), vehicle: Klucel (hydroxypropylcellulose) (HPC)",108 % of control
same,T/C,"dose: 20.0 mg/kg/injection, schedule: Q01DX009 (ip), vehicle: Klucel (hydroxypropylcellulose) (HPC)",110 % of control
same,T/C,"dose: 40.0 mg/kg/injection, schedule: Q01DX009 (ip), vehicle: Klucel (hydroxypropylcellulose) (HPC)",150 % of control
NC(=O)/C=C/C(=O)O,T/C,[1],101 % of control
same,T/C,[2],93 % of control
same,T/C,[3],103 % of control
same,T/C,[4],101 % of control
CCN/C(C)=C\C(=O)OCC,T/C,[5],95 % of control
same,T/C,"dose: 100.0 mg/kg/injection, schedule: Q01DX009 (ip), vehicle: Klucel (hydroxypropylcellulose) (HPC)",122 % of control
same,T/C,[6],100 % of control
same,T/C,"dose: 100.0 mg/kg/injection, schedule: Q04DX003 (ip), vehicle: Klucel (hydroxypropylcellulose) (HPC)",100 % of control
same,T/C,"dose: 200.0 mg/kg/injection, schedule: Q01DX009 (ip), vehicle: Klucel (hydroxypropylcellulose) (HPC)",111 % of control
same,T/C,"dose: 200.0 mg/kg/injection, schedule: Q01DX009 (ip), vehicle: saline with Tween-80",117 % of control
same,T/C,"dose: 200.0 mg/kg/injection, schedule: Q04DX003 (ip), vehicle: Klucel (hydroxypropylcellulose) (HPC)",100 % of control
same,T/C,"dose: 266.0 mg/kg/injection, schedule: Q01DX009 (ip), vehicle: Klucel (hydroxypropylcellulose) (HPC)",99 % of control
same,T/C,"dose: 400.0 mg/kg/injection, schedule: Q01DX009 (ip), vehicle: Klucel (hydroxypropylcellulose) (HPC)",99 % of control
same,T/C,"dose: 400.0 mg/kg/injection, schedule: Q01DX009 (ip), vehicle: saline with Tween-80",111 % of control
same,T/C,"dose: 400.0 mg/kg/injection, schedule: Q04DX003 (ip), vehicle: Klucel (hydroxypropylcellulose) (HPC)",100 % of control
NNCc1c(C(=O)O)oc2ccccc12,T/C,[5],99 % of control
same,T/C,[6],100 % of control
Cc1ccc(CNc2ccc(F)cc2)cc1,T/C,"dose: 100.0 mg/kg/injection, schedule: Q01DX009 (ip), vehicle: other",100 % of control
same,T/C,"dose: 100.0 mg/kg/injection, schedule: Q04DX003 (ip), vehicle: saline with Tween-80",95 % of control
same,T/C,"dose: 178.0 mg/kg/injection, schedule: Q01DX009 (ip), vehicle: other",100 % of control
same,T/C,"dose: 200.0 mg/kg/injection, schedule: Q01DX009 (ip), vehicle: other",95 % of control
same,T/C,"dose: 200.0 mg/kg/injection, schedule: Q04DX003 (ip), vehicle: saline with Tween-80",104 % of control
same,T/C,"dose: 266.0 mg/kg/injection, schedule: Q01DX009 (ip), vehicle: other",109 % of control
same,T/C,"dose: 400.0 mg/kg/injection, schedule: Q01DX009 (ip), vehicle: other",104 % of control
same,T/C,"dose: 400.0 mg/kg/injection, schedule: Q04DX003 (ip), vehicle: saline with Tween-80",100 % of control
O=[N+]([O-])c1ccccc1C(c1ccc2ccccc2c1O)N1CCOCC1 (centres undefined),T/C,"dose: 33.0 mg/kg/injection, schedule: Q01DX001 (ip), vehicle: saline with Tween-80",100 % of control
same,T/C,"dose: 50.0 mg/kg/injection, schedule: Q01DX001 (ip), vehicle: saline sonified",163 % of control
same,T/C,"dose: 50.0 mg/kg/injection, schedule: Q01DX001 (ip), vehicle: saline with Tween-80",100 % of control
same,T/C,"dose: 75.0 mg/kg/injection, schedule: Q01DX001 (ip), vehicle: saline with Tween-80",100 % of control
same,T/C,"dose: 100.0 mg/kg/injection, schedule: Q01DX001 (ip), vehicle: saline sonified",109 % of control
same,T/C,"dose: 200.0 mg/kg/injection, schedule: Q01DX001 (ip), vehicle: saline sonified",95 % of control
COc1ccc(CN(C(C)=O)c2cc(C)c([N+](=O)[O-])cc2OC)cc1OC,T/C,[1],103 % of control
same,T/C,"dose: 25.0 mg/kg/injection, schedule: Q04DX003 (ip), vehicle: saline",87 % of control and 107 % of control
same,T/C,[2],87 % of control
same,T/C,"dose: 50.0 mg/kg/injection, schedule: Q04DX003 (ip), vehicle: saline",88 % of control and 107 % of control
same,T/C,[3],111 % of control
same,T/C,"dose: 150.0 mg/kg/injection, schedule: Q04DX003 (ip), vehicle: saline",106 % of control
same,T/C,[4],108 % of control
same,T/C,"dose: 200.0 mg/kg/injection, schedule: Q04DX003 (ip), vehicle: saline",99 % of control and 107 % of control
same,T/C,"dose: 300.0 mg/kg/injection, schedule: Q04DX003 (ip), vehicle: saline",114 % of control
same,T/C,"dose: 400.0 mg/kg/injection, schedule: Q01DX009 (ip), vehicle: saline",100 % of control
same,T/C,"dose: 400.0 mg/kg/injection, schedule: Q04DX003 (ip), vehicle: saline",100 % of control
